Experimental data reported in ChEMBL document CHEMBL1201861, “Genomics of Drug Sensitity in Cancer screening data, Wellcome Trust Sanger Institute”.
pIC50: −log10 of the molar value.

Columns and labels:
Assay in all cases: cells
Format in all cases: functional, cell-based, Homo sapiens
ChaGo-K-1 = details: Homo sapiens, ChaGo-K-1;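 also: growth inhibition of ChaGo-K-1 cells, read out with a cell viability assay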
Description: SANGER: Inhibition of human ChaGo-K-1 cell growth in a cell viability assay.

HCC1954 = details: Homo sapiens, HCC1954;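 also: growth inhibition of human HCC1954 cells, read out with a cell viability assay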
Description: SANGER: Inhibition of human HCC1954 cell growth in a cell viability assay.

BHY = details: Homo sapiens, BHY;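 also: cell growth inhibition read out by a viability assay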
Description: SANGER: Inhibition of human BHY cell growth in a cell viability assay.

WM-115 = details: Homo sapiens, WM-115
Description: SANGER: Inhibition of human WM-115 cell growth in a cell viability assay.

MeWo = details: Homo sapiens, MeWo;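 also: growth inhibition of MeWo cells, determined by a cell viability readout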
Description: SANGER: Inhibition of human Mewo cell growth in a cell viability assay.

SF-295 = details: Homo sapiens, SF-295;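 also: growth inhibition of SF-295 cells, read out with a cell viability assay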
Description: SANGER: Inhibition of human SF295 cell growth in a cell viability assay.

G-401 = details: Homo sapiens, G-401
Description: SANGER: Inhibition of human G-401 cell growth in a cell viability assay.

NCI-H2342 = details: Homo sapiens, NCI-H2342;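 also: growth inhibition of the cancer cell line, determined with a cell viability assay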
Description: SANGER: Inhibition of human NCI-H2342 cell growth in a cell viability assay.

NCI-H1048 = details: Homo sapiens, NCI-H1048;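 also: growth inhibition of human NCI-H1048 cells, read out with a cell viability assay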
Description: SANGER: Inhibition of human NCI-H1048 cell growth in a cell viability assay.

NUGC-3 = details: Homo sapiens, NUGC-3;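 also: growth inhibition of human NUGC-3 cells, read out with a cell viability assay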
Description: SANGER: Inhibition of human NUGC-3 cell growth in a cell viability assay.

SW13 = details: Homo sapiens, SW13;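 also: IC50 is inhibition of SW13 cell growth, read out with a cell viability assay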
Description: SANGER: Inhibition of human SW13 cell growth in a cell viability assay.

SW837 = details: Homo sapiens, SW837;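 also: growth inhibition of SW837 cells, determined with a cell viability assay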
Description: SANGER: Inhibition of human SW837 cell growth in a cell viability assay.

MKN-45 = details: Homo sapiens, MKN-45;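 also: growth inhibition of human MKN-45 cells, measured with a cell viability assay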
Description: SANGER: Inhibition of human MKN45 cell growth in a cell viability assay.

KYSE-140 = details: Homo sapiens, KYSE-140;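 also: cell viability assay measuring growth inhibition in human KYSE-140 cells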
Description: SANGER: Inhibition of human KYSE-140 cell growth in a cell viability assay.

DoTc2-4510 = details: Homo sapiens, DoTc2-4510
OC-314 = details: Homo sapiens, OC-314
Description: SANGER: Inhibition of human OC-314 cell growth in a cell viability assay.

MDA-MB-361 = details: Homo sapiens, MDA-MB-361
A204 = details: Homo sapiens, A204;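 also: growth inhibition of human A204 cells, read out with a cell viability assay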
Description: SANGER: Inhibition of human A204 cell growth in a cell viability assay.

T84 = details: Homo sapiens, T84;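 also: growth inhibition measured with a cell viability readout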
Description: SANGER: Inhibition of human T84 cell growth in a cell viability assay.

ME-180 = details: Homo sapiens, ME-180;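 also: cell viability assay measuring growth inhibition of ME-180 cells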
Description: SANGER: Inhibition of human ME-180 cell growth in a cell viability assay.

GAMG = details: Homo sapiens, GAMG;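 also: cell growth inhibition measured by a viability assay in the GAMG human cell line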
Description: SANGER: Inhibition of human GAMG cell growth in a cell viability assay.

EPLC-272H = details: Homo sapiens, EPLC-272H
Description: SANGER: Inhibition of human EPLC-272H cell growth in a cell viability assay.

KU-19-19 = details: Homo sapiens, KU-19-19
Description: SANGER: Inhibition of human KU-19-19 cell growth in a cell viability assay.

AN3-CA = details: Homo sapiens, AN3-CA;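 also: growth inhibition of human AN3-CA cells measured by a cell viability assay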
Description: SANGER: Inhibition of human AN3-CA cell growth in a cell viability assay.

KYSE-410 = details: Homo sapiens, KYSE-410;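 also: growth inhibition of KYSE-410 cells, measured through a cell viability readout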
Description: SANGER: Inhibition of human KYSE-410 cell growth in a cell viability assay.

COLO-679 = details: Homo sapiens, COLO-679
Description: SANGER: Inhibition of human COLO-679 cell growth in a cell viability assay.

JEG-3 = details: Homo sapiens, JEG-3;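 also: growth inhibition of human JEG-3 cells, read out with a cell viability assay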
Description: SANGER: Inhibition of human JEG-3 cell growth in a cell viability assay.

Capan-2 = details: Homo sapiens, Capan-2;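 also: Capan-2 cell growth inhibition, read out with a viability assay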
Description: SANGER: Inhibition of human Capan-2 cell growth in a cell viability assay.

NCI-H520 = details: Homo sapiens, NCI-H520;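 also: growth inhibition of NCI-H520 cells, measured by a cell viability assay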
Description: SANGER: Inhibition of human NCI-H520 cell growth in a cell viability assay.

MKN-7 = details: Homo sapiens, MKN-7;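 also: growth inhibition of MKN-7 cells, read out with a cell viability assay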
Description: SANGER: Inhibition of human MKN7 cell growth in a cell viability assay.

PC-3 = details: Homo sapiens, PC-3;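 also: cell viability assay measuring growth inhibition of PC-3 cells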
Description: SANGER: Inhibition of human PC-3 cell growth in a cell viability assay.

MDA-MB-175-VII = details: Homo sapiens, MDA-MB-175-VII
HCC1937 = details: Homo sapiens, HCC1937;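 also: growth inhibition measured with a cell viability read-out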
Description: SANGER: Inhibition of human HCC1937 cell growth in a cell viability assay.

786-0 = details: Homo sapiens
Description: SANGER: Inhibition of human 786-0 cell growth in a cell viability assay.

KP-4 = details: Homo sapiens, KP-4;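 also: human KP-4 cells, with growth inhibition read out through a cell viability assay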
Description: SANGER: Inhibition of human KP-4 cell growth in a cell viability assay.

G-361 = details: Homo sapiens, G-361

SMILES | pIC50 (ChaGo-K-1) | pIC50 (BHY) | pIC50 (WM-115) | pIC50 (MeWo) | pIC50 (SF-295) | pIC50 (G-401) | pIC50 (NCI-H2342) | pIC50 (NCI-H1048) | pIC50 (SW13) | pIC50 (SW837) | pIC50 (MKN-45) | pIC50 (KYSE-140) | pIC50 (DoTc2-4510) | pIC50 (OC-314) | pIC50 (MDA-MB-361) | pIC50 (GAMG) | pIC50 (EPLC-272H) | pIC50 (KU-19-19) | pIC50 (AN3-CA) | pIC50 (KYSE-410) | other results
COc1cc2c(Nc3ccc(NC(=O)c4ccccc4)cc3)ncnc2cc1OCCCN1CCOCC1 | < 5.40 | < 5.40 | < 5.40 | < 5.40 | < 5.40 | < 5.40 | < 5.40 | 5.74 | < 5.40 | < 5.40 | < 5.40 | < 5.40 | < 5.40 | < 5.40 | < 5.40 | < 5.40 | < 5.40 | < 5.40 | < 5.40 | < 5.40 | pIC50 (HCC1954): < 5.40; pIC50 (NUGC-3): 5.41; pIC50 (A204): < 5.40; pIC50 (T84): < 5.40; pIC50 (ME-180): < 5.40; pIC50 (COLO-679): < 5.40; pIC50 (JEG-3): < 5.40; pIC50 (Capan-2): < 5.40; pIC50 (NCI-H520): < 5.40; pIC50 (MKN-7): < 5.40; pIC50 (PC-3): < 5.40; pIC50 (MDA-MB-175-VII): < 5.40; pIC50 (HCC1937): < 5.40; pIC50 (786-0): < 5.40; pIC50 (KP-4): < 5.40
CC(C)c1ccccc1Cc1cc(C(=O)Nc2ccc(S(=O)(=O)c3ccccc3C(C)(C)C)cc2)c(O)c(O)c1O | 6.53 | 6.15 | 5.92 | 6.32 | 6.20 | 6.34 | 6.57 | 6.67 | 6.69 | 5.62 | 6.47 | 6.73 | 5.83 | 6.68 | 6.65 | 6.67 | 6.15 | 6.36 | 6.05 | 6.06 | pIC50 (G-361): 6.90; pIC50 (HCC1954): 6.05; pIC50 (NUGC-3): 5.94; pIC50 (A204): 7.01; pIC50 (T84): 4.86; pIC50 (COLO-679): 6.63; pIC50 (JEG-3): 6.13; pIC50 (Capan-2): 5.22; pIC50 (NCI-H520): 6.22; pIC50 (MKN-7): 5.35; pIC50 (PC-3): 6.15; pIC50 (MDA-MB-175-VII): 6.35; pIC50 (HCC1937): 5.79; pIC50 (786-0): 5.16; pIC50 (KP-4): 6.34
CC(C)CCN1c2nc(Nc3cc(F)c(O)c(F)c3)ncc2N(C)C(=O)C1C (stereo not given) | < 5.30 | < 5.30 | < 5.30 | < 5.30 | < 5.30 | < 5.30 | < 5.30 | 5.57 | < 5.30 | < 5.30 | < 5.30 | < 5.30 | < 5.30 | < 5.30 | < 5.30 | 6.13 | 5.38 | 5.44 | < 5.30 | < 5.30 | pIC50 (G-361): 5.67; pIC50 (HCC1954): 5.37; pIC50 (NUGC-3): < 5.30; pIC50 (A204): < 5.30; pIC50 (T84): < 5.30; pIC50 (ME-180): 5.56; pIC50 (COLO-679): < 5.30; pIC50 (JEG-3): 5.43; pIC50 (Capan-2): < 5.30; pIC50 (NCI-H520): < 5.30; pIC50 (MKN-7): < 5.30; pIC50 (PC-3): 5.31; pIC50 (MDA-MB-175-VII): < 5.30; pIC50 (HCC1937): < 5.30; pIC50 (786-0): < 5.30; pIC50 (KP-4): < 5.30
Nc1cccc2c1CN(C1CCC(=O)NC1=O)C2=O (stereo not given) [LENALIDOMIDE] | < 5.30 | < 5.30 | < 5.30 | < 5.30 | < 5.30 | < 5.30 | < 5.30 | < 5.30 | < 5.30 | < 5.30 | < 5.30 | < 5.30 | < 5.30 | < 5.30 | < 5.30 | < 5.30 | < 5.30 | < 5.30 | < 5.30 | < 5.30 | pIC50 (G-361): < 5.30; pIC50 (HCC1954): < 5.30; pIC50 (NUGC-3): < 5.30; pIC50 (A204): < 5.30; pIC50 (T84): < 5.30; pIC50 (ME-180): < 5.30; pIC50 (COLO-679): < 5.30; pIC50 (JEG-3): < 5.30; pIC50 (Capan-2): < 5.30; pIC50 (NCI-H520): < 5.30; pIC50 (MKN-7): < 5.30; pIC50 (PC-3): < 5.30; pIC50 (MDA-MB-175-VII): < 5.30; pIC50 (HCC1937): < 5.30; pIC50 (786-0): < 5.30; pIC50 (KP-4): < 5.30
CN(C)C(=N)NC(=N)N [METFORMIN] | 2.05 | < 1.70 | < 1.70 | < 1.70 | 2.21 | 2.80 | 2.06 | < 1.70 | 2.00 | < 1.70 | < 1.70 | < 1.70 | < 1.70 | < 1.70 | < 1.70 | < 1.70 | < 1.70 | 2.02 | < 1.70 | < 1.70 | pIC50 (ME-180): < 1.70; pIC50 (COLO-679): < 1.70; pIC50 (PC-3): < 1.70; pIC50 (MDA-MB-175-VII): < 1.70; pIC50 (HCC1937): < 1.70; pIC50 (786-0): < 1.70; pIC50 (KP-4): 2.15
CC1(C)CNc2cc(NC(=O)c3cccnc3NCc3ccncc3)ccc21 [MOTESANIB] | < 5.70 | < 5.70 | < 5.70 | < 5.70 | < 5.70 | < 5.70 | < 5.70 | < 5.70 | < 5.70 | < 5.70 | < 5.70 | < 5.70 | < 5.70 | < 5.70 | < 5.70 | < 5.70 | < 5.70 | < 5.70 | < 5.70 | < 5.70 | pIC50 (HCC1954): < 5.70; pIC50 (NUGC-3): < 5.70; pIC50 (A204): 6.29; pIC50 (T84): < 5.70; pIC50 (ME-180): < 5.70; pIC50 (COLO-679): < 5.70; pIC50 (JEG-3): < 5.70; pIC50 (Capan-2): < 5.70; pIC50 (NCI-H520): < 5.70; pIC50 (MKN-7): < 5.70; pIC50 (PC-3): < 5.70; pIC50 (MDA-MB-175-VII): < 5.70; pIC50 (HCC1937): < 5.70; pIC50 (786-0): < 5.70; pIC50 (KP-4): < 5.70
Cc1cn(-c2cc(NC(=O)c3ccc(C)c(Nc4nccc(-c5cccnc5)n4)c3)cc(C(F)(F)F)c2)cn1 [NILOTINIB] | < 5.70 | < 5.70 | < 5.70 | < 5.70 | < 5.70 | < 5.70 | < 5.70 | < 5.70 | < 5.70 | < 5.70 | < 5.70 | < 5.70 | < 5.70 | < 5.70 | < 5.70 | < 5.70 | < 5.70 | < 5.70 | < 5.70 | < 5.70 | pIC50 (G-361): < 5.70; pIC50 (HCC1954): < 5.70; pIC50 (NUGC-3): < 5.70; pIC50 (A204): 5.80; pIC50 (T84): < 5.70; pIC50 (ME-180): < 5.70; pIC50 (COLO-679): < 5.70; pIC50 (JEG-3): < 5.70; pIC50 (Capan-2): < 5.70; pIC50 (NCI-H520): < 5.70; pIC50 (MKN-7): < 5.70; pIC50 (PC-3): < 5.70; pIC50 (MDA-MB-175-VII): < 5.70; pIC50 (HCC1937): < 5.70; pIC50 (786-0): < 5.70; pIC50 (KP-4): < 5.70
CCN(CC)CCCCNc1ncc2cc(-c3cc(OC)cc(OC)c3)c(NC(=O)NC(C)(C)C)nc2n1 [PD-173074] | < 5.70 | < 5.70 | < 5.70 | < 5.70 | < 5.70 | < 5.70 | < 5.70 | < 5.70 | < 5.70 | < 5.70 | < 5.70 | < 5.70 | < 5.70 | < 5.70 | < 5.70 | < 5.70 | < 5.70 | < 5.70 | 6.40 | < 5.70 | pIC50 (HCC1954): < 5.70; pIC50 (NUGC-3): < 5.70; pIC50 (A204): < 5.70; pIC50 (T84): < 5.70; pIC50 (ME-180): < 5.70; pIC50 (COLO-679): < 5.70; pIC50 (JEG-3): < 5.70; pIC50 (Capan-2): < 5.70; pIC50 (NCI-H520): < 5.70; pIC50 (MKN-7): < 5.70; pIC50 (PC-3): < 5.70; pIC50 (MDA-MB-175-VII): < 5.70; pIC50 (HCC1937): < 5.70; pIC50 (786-0): < 5.70; pIC50 (KP-4): < 5.70
